Active and inactive are the calls of the source.
How the values were obtained:
[1] = target: Cytochrome P450 2D6 (Homo sapiens, UniProt P10635); assay: qHTS Assay for Inhibitors and Substrates of Cytochrome P450 2D6. [Related pubchem assays: 410 ]; type: ADME; conditions: read-out: Potency
[2] = target: T1, Short transient receptor potential channel 4 (Mus musculus, UniProt Q9QUQ5); assay: calcium entry via TRPC4 opening agents – cell-based, HEK293 TRPC4/mu-opioid, Fluo-4 calcium, dose response (AID 434937); type: functional
T1 sequence (Q9QUQ5 whole entry): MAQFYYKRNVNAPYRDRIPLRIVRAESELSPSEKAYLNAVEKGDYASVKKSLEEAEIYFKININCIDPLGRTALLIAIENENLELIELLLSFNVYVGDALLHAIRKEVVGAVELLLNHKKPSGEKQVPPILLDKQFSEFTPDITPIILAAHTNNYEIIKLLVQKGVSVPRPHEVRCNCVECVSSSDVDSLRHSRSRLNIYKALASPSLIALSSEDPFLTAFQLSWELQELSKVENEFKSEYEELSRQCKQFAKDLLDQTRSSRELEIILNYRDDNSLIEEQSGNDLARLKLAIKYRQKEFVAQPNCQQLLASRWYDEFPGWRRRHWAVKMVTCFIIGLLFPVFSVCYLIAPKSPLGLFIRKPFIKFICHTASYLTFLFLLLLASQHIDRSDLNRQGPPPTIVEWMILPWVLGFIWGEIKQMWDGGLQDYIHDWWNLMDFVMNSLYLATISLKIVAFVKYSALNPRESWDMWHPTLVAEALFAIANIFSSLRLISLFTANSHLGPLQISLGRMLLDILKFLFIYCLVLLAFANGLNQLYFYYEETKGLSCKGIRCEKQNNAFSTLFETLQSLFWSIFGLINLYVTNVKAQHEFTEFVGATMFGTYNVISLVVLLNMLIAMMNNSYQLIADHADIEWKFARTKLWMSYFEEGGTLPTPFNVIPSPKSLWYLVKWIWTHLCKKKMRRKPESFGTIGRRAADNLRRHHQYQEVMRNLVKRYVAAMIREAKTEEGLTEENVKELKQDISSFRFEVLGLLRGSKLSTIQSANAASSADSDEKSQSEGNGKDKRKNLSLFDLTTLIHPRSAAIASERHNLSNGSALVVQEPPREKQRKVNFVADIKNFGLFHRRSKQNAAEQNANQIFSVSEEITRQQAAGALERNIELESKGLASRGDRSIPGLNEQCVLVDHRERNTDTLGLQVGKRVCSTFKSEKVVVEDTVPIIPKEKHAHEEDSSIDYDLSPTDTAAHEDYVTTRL

[3] = test system: INS1; assay: INS-1E survival protection against cytokine death – cell-based, luminescence, retest, dose response (AID 449756); type: functional; conditions: Rattus norvegicus;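 note: cell death triggered by IL-1 beta plus TNF-alpha plus IFN-gamma mixture; protective hits raise ATP signal compared with cytokine alone wells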
[4] = test system: Vero; assay: mammalian cell viability reduction – secondary assay, cytotoxicity control for West Nile virus antiviral project, dose response (AID 1650); type: functional; conditions: Chlorocebus sabaeus
[5] = fluconazole-exposed Candida albicans growth modulators – fluorescence, retest, confirmation (AID 2467); type: functional, cell-based
[6] = target: Beta-galactosidase (Escherichia coli, UniProt Q8VNN2); assay: PubChem AID 485352; type: functional
Sequence of Beta-galactosidase (Q8VNN2 whole entry): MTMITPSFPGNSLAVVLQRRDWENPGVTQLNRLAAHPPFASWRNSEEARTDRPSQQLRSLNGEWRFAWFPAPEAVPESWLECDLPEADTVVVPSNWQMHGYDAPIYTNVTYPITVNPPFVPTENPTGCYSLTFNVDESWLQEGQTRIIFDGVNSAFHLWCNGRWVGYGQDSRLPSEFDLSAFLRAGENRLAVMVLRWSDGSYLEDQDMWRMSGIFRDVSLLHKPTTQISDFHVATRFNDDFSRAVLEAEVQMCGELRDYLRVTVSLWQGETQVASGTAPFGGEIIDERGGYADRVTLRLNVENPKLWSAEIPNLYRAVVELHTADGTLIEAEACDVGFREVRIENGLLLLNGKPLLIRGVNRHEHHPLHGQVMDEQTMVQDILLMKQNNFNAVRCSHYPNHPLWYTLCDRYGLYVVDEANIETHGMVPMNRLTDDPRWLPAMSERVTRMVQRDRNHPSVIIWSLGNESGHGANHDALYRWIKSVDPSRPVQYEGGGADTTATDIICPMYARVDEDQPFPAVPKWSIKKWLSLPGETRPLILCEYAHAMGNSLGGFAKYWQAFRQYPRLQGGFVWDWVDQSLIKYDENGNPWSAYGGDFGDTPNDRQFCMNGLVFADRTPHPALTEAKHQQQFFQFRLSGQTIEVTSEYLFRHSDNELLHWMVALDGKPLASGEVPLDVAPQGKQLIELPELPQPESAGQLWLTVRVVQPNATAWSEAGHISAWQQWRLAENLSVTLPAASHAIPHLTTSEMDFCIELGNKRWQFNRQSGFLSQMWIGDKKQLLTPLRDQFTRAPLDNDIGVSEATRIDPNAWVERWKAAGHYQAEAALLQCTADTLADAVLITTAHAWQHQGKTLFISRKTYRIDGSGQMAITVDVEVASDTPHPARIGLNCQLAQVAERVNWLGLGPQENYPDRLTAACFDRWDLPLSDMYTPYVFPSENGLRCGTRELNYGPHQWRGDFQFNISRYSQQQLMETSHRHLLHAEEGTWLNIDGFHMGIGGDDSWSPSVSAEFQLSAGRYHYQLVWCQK

[7] = NIH-3T3 fibroblast cytotoxicity, dose response, cytotoxicity control, cell-based, fluorescence, Alamar Blue, secondary assay (AID 2327); type: functional;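 note: NIH-3T3 mouse fibroblasts cultured with fluconazole at 8 µg/mL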
[8] = target: T2, Type-1 angiotensin II receptor (Homo sapiens, UniProt P30556); assay: antagonism of angiotensin II type 1 receptor – cell-based, uHTS hits, selectivity assay for APJ receptor antagonist project, dose response (AID 463214); type: functional;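 note: antagonist potency against angiotensin II stimulated AT1 response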
T2 sequence (P30556 whole entry): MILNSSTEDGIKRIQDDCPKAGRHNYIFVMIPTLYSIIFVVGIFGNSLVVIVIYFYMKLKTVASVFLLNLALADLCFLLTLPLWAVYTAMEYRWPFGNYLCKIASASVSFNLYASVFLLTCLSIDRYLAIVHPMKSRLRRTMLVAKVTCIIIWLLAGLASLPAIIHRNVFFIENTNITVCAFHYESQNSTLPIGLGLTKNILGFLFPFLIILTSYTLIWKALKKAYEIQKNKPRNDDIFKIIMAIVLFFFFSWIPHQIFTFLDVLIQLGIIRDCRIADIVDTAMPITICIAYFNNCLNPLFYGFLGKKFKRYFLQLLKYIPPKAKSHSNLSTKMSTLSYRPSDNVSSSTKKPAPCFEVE

[9] = target: Paired box protein Pax-8 (Homo sapiens, UniProt Q06710); assay: PAX8 transcriptional activity inhibition in RMG-I – RMG-I cells, luciferase, cherry-pick, dose response (AID 687027); type: functional, cell-based;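 note: luciferase reporter driven by Pax8 target thyroperoxidase promoter measured by SteadyGlo luminescence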
Sequence of Paired box protein Pax-8 (Q06710 whole entry): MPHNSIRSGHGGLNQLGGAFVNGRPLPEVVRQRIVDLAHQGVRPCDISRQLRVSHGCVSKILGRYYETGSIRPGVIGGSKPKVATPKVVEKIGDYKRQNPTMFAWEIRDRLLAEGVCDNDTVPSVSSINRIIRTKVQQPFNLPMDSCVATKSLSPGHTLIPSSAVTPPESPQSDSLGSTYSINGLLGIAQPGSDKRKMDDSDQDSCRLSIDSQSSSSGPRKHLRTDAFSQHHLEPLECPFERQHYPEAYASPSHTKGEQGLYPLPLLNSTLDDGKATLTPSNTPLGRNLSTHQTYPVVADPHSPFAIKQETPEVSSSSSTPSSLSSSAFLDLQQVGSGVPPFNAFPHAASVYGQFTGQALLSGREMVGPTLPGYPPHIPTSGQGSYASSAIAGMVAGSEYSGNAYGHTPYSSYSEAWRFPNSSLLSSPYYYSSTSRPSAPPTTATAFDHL

[10] = target: T3, Microphthalmia-associated transcription factor (Homo sapiens, UniProt O75030); assay: reducers of TRPM1 reporter luminescence, concentration series – cell-based, SK-MEL-5, cherry-picked, set 3, MITF inhibitor project, dose response (AID 493073); type: functional;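 note: SK-MEL-5 melanoma cells with luciferase driven by the MITF target TRPM1 promoter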
T3 sequence (O75030 whole entry): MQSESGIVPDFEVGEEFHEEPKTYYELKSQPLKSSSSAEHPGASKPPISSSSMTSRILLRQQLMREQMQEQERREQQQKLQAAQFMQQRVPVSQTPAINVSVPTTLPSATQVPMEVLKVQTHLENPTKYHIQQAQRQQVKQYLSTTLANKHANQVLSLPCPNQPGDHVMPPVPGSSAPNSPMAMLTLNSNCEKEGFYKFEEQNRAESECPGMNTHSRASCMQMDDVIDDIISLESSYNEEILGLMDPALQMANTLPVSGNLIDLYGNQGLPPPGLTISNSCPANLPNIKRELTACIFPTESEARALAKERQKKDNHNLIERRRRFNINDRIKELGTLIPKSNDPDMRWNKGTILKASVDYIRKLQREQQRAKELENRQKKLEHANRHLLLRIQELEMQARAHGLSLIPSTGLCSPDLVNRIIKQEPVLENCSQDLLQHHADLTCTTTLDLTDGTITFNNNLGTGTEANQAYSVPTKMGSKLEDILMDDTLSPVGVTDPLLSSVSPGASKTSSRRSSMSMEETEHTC

[11] = A Cell Based Secondary Assay To Explore Cytotoxicity of Compounds that Sensitize Mycobacterium Tuberculosis to Beta-Lactam Antibiotics.; type: functional
[12] = target: T4, Alkaline phosphatase, tissue-nonspecific isozyme (Homo sapiens, UniProt P05186)
T4 sequence (P05186 whole entry): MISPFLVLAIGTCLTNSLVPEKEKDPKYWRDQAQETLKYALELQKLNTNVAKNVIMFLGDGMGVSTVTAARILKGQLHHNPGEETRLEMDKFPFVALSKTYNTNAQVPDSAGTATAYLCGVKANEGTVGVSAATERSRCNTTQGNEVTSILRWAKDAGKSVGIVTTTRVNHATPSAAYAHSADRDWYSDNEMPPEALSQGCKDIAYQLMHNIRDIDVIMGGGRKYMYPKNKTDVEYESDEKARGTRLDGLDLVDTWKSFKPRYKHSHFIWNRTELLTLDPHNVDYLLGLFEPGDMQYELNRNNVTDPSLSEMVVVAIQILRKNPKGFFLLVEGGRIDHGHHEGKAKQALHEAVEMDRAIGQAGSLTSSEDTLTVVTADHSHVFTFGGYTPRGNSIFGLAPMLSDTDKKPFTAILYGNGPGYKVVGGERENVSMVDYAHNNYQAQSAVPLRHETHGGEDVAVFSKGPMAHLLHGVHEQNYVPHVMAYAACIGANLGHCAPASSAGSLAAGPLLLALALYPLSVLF

[13] = target: G-protein coupled receptor 55 (Homo sapiens, UniProt Q9Y2T6); assay: inhibition of LPI-stimulated GPR55 beta-arrestin translocation – imaging, U2OS, beta-arrestin-GFP, LPI agonist, primary screen (AID 2013); type: functional;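 note: antagonist potency measured as reduced agonist-driven arrestin aggregation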
Sequence of G-protein coupled receptor 55 (Q9Y2T6 whole entry): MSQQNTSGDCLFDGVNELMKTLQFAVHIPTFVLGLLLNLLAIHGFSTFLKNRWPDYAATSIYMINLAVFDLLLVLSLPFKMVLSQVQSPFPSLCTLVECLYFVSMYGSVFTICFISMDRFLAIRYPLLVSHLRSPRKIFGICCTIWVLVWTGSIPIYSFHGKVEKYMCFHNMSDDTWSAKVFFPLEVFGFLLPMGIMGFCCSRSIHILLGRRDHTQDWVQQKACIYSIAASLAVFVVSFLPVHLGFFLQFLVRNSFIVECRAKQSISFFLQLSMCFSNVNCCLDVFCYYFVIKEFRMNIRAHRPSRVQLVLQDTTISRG

[14] = Luminescence Cell-Based Dose Retest to Confirm Inhibitors of Cancer Stem Cells. [Related pubchem assays (depositor defined):AID2717, AID2721]; type: functional; conditions: Homo sapiens
[15] = IC50 of Artemis nuclease activity blockers – biochemical, fluorescence intensity, dose response (AID 720701); type: functional;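 note: Artemis endonuclease enzyme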
[16] = target: Heat shock protein HSP 90-alpha (Homo sapiens, UniProt P07900); type: functional, organism-based
[17] = target: Mothers against decapentaplegic homolog 3 (Homo sapiens, UniProt P84022); assay: blockers of Smad3 complex formation in lysate – cell lysate, secondary confirmation, chemiluminescent ELISA, HEK293 lysate, dose response (AID 1058); type: functional
Sequence of Mothers against decapentaplegic homolog 3 (P84022 whole entry): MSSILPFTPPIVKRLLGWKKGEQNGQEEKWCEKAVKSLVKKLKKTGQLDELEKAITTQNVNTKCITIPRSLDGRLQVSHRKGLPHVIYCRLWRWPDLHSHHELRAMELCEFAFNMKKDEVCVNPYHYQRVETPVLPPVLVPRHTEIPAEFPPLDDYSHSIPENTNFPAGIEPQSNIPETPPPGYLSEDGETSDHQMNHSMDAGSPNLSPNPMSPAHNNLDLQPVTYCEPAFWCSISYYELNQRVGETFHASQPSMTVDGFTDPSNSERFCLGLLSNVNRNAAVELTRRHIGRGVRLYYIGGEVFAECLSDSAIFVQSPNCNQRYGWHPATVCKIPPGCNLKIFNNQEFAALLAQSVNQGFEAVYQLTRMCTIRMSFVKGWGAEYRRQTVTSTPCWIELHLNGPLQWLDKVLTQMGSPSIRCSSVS

[18] = target: Procathepsin L (Homo sapiens, UniProt P07711); assay: CTSL1 protease inhibition – biochemical, QFRET, 1536-well, counter-screen for M1/M17 aminopeptidase inhibitor project, dose response (AID 2214)
Sequence of Procathepsin L (P07711 whole entry): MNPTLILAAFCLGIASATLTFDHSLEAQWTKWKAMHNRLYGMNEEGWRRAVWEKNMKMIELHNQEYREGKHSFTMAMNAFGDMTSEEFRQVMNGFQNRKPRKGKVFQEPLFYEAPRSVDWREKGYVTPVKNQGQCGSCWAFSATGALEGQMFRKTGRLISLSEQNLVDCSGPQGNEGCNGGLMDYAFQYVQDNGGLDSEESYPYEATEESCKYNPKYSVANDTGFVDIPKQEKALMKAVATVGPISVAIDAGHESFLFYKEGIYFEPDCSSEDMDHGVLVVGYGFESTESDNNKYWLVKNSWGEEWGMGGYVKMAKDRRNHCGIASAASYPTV

[19] = target: T5, Leucine aminopeptidase (Plasmodium falciparum 3D7, UniProt Q8IL11); assay: P. falciparum M17LAP inhibitors, primary screen, biochemical, fluorogenic H-Leu-NHMec substrate, 1536-well (AID 1619); type: functional
T5 sequence (Q8IL11 whole entry): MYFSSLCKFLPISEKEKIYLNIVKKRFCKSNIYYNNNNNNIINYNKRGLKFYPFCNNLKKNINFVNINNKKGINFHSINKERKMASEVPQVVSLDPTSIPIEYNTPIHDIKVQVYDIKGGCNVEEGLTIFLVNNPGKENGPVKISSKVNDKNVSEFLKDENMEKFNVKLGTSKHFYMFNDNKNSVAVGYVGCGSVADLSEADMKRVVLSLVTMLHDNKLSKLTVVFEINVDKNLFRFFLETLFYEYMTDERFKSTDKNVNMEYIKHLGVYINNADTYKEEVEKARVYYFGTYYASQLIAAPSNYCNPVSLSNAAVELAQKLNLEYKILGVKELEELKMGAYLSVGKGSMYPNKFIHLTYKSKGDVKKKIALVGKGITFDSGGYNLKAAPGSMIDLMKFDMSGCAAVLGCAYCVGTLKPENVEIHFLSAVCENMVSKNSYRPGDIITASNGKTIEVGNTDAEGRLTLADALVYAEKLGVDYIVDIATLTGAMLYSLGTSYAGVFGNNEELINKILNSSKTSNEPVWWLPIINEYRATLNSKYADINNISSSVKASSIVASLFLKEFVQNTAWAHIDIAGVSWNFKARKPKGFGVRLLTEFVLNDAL

[20] = target: T6, Aspartyl aminopeptidase (Plasmodium falciparum 3D7, UniProt Q8I2J3); assay: Counterscreen for inhibitors of M1 and M17 aminopeptidases: QFRET-based biochemical high throughput dose response assay for inhibitors of the Plasmodium falciparum M18 Aspartyl Aminopeptidase (PFM18AAP). [Related PubChem assays: 1619 (Screening assay (M17LAP inhibitors).), 1445 (Screening assay (M1AAP inhibitors).)]
T6 sequence (Q8I2J3 whole entry): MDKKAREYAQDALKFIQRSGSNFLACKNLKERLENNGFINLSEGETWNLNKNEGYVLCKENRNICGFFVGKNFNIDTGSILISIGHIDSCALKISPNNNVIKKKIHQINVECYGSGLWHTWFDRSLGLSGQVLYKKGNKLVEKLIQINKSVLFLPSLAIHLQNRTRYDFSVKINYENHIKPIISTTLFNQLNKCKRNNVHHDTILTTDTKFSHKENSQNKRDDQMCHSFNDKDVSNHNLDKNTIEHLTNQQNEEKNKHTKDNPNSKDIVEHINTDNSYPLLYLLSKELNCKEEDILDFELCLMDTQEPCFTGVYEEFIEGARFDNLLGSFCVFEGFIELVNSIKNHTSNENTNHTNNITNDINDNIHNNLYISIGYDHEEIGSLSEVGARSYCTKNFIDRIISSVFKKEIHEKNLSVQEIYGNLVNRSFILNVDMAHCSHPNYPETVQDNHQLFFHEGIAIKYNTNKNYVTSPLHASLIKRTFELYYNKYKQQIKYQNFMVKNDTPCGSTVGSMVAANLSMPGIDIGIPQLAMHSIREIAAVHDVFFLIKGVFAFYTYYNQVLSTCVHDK

Sequence of Cytochrome P450 2D6 (P10635 whole entry): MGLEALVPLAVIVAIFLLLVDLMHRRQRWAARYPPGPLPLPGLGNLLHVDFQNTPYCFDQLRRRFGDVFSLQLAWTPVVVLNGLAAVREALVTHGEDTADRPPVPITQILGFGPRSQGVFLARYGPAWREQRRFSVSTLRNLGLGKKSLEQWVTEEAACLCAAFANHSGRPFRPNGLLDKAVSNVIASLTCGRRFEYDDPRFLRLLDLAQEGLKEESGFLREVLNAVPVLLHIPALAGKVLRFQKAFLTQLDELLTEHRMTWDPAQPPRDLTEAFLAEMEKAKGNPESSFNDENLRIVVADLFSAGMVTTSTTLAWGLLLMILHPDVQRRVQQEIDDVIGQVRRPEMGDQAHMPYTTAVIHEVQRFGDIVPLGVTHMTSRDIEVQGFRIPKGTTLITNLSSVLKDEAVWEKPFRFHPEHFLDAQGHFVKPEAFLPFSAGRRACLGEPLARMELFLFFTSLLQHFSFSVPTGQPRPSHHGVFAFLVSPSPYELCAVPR

COc1ccc(OC2C=CC(c3ccccc3)OC2CO)cc1 (stereo unspecified)
AC50 [1]: 6.31 µM (inconclusive)

CC(C)(C)C(=O)NC(=S)NNC(=O)c1ccc(-c2ccccc2)cc1
EC50 [2]: 1.5 µM (active) | AC50 [3]: 2.14 µM (active) | CC50 [4]: 4.57 µM (active) | EC50 [5]: 0.694 µM (active) | EC50 [6]: > 40 µM (inactive) | EC50 [7]: 3.25 µM (active) | IC50 [8]: 10.8 µM (active)

COc1cc2c(cc1O)CCN[C@H]2C
AC50 [1]: 20 µM (inconclusive)

C=C1C(=O)O[C@@H]2[C@H]1[C@@H](OC(=O)/C(C)=C/C)C/C(C)=C\C(=O)/C=C(\C)[C@@H]2O
AC50 [9]: 4.03 µM (active) | AC50 [10]: 7.07 µM (active) | CC50 [11]: 4.26 µM (active)

c1ccc(-c2c(-c3ccccc3)n(Cc3ccco3)c3ncnc(NCCCn4ccnc4)c23)cc1
EC50 [12]: 63 µM (not active) | IC50 [13]: 2.09 µM (active) | AC50 [14]: 5.23 µM (active) | IC50 [15]: 17.8 µM (active) | AC50 [16]: 2.53 µM (active)

COc1ccc(C(c2cc3c(cc2O)OCO3)N2CCOCC2)c(OC)c1 (stereo unspecified)
IC50 [17]: > 40 µM (not active)

Cc1sc(NC(=O)C2CC(Cl)=CCC2C(=O)O)c(C#N)c1C (stereo unspecified)
IC50 [18]: > 59.6 µM (not active) | IC50 [19]: 1.73 µM (active) | IC50 [20]: > 73.5 µM (not active)

CCCCc1ccc(NC(=S)NCCc2ccc(S(N)(=O)=O)cc2)cc1
EC50 [12]: > 100 µM (not active)

O=C1C=CC(=C(c2ccc(O)c(O)c2)c2ccccc2S(=O)(=O)O)C=C1O [PYROCATECHOL VIOLET]
IC50 [17]: 3.28 µM (not active)

COC(=O)c1c(-c2cc(C)ccc2C)csc1NC(=O)C1CC=CCC1C(=O)O (stereo unspecified)
IC50 [18]: > 59.6 µM (not active) | IC50 [19]: < 1 µM (active) | IC50 [20]: > 73.5 µM (not active)

— ChEMBL document CHEMBL1201862, “PubChem BioAssay data set” (2004)
